Test results taken from patent US20080113347A1, “Method for the in Vitro Diagnosis and Prognosis of Demyelinating Diseases, and for the Development of Drugs Against Demyelinating Diseases” (priority 2003, published 2008).
d = 2'-deoxy (DNA); m = 2'-O-methyl

How the values were obtained:
dusp6 gene expression = test: Differential analysis of dusp6 gene expression in oligodendrocyte cultures with Rat Genome U34 DNA arrays; assay type: cell-based; parameters: key to Change: Increases (I); Decreases (D); undergoes No Change (NC); Marginally Increases (MI); Marginally Decreases (MD); key to Detection: Present (P); Absent (A); Marginal (M); conditions: for Ratio (=2^SLR): fold change vs untreated control; for Signal (dusp6, probe set U42627_at): arrays scaled to total intensity 100; for Change: vs control
Source text: Microarrays. The microarrays GeneChip Test 3 (Affymetrix, Santa Clara) were used which allow testing the quality of the RNA prior to the expression analysis with GeneChip Rat Genome U34 set (Affymetrix, Santa Clara), representing 3322 complete gene sequences. The dusp6 gene is represented in the microarray by probe set U42627_at of Affymetrix, which are sense oligonucleotides of 25 nucleotides in length designed on the basis of GeneBank U42627 sequence (Table 1).
Samples. The samples studied corresponded to primary oligodendrocyte cultures obtained from the optic nerve of 12-day old rats. To prevent inter-individual variations, each culture corresponded to a 10-animal cell pool. Treatments were made in duplicate with 10 μM AMPA (α-amino-3-hydroxy-5-methyl-4-isoxazolepropionic acid) or 3 μM kainate. The duration of treatments was 2, 10 and 15 minutes, the cells being collected immediately after treatment in the first two cases and 1 hour after the 15-minute treatment. Treatment for 10 and 15 minutes with AMPA and with kainate causes apoptosis, whereas 2-minute treatment was considered sublethal due to scarce treatment duration. After treatments, the cells were collected in TRIzol® Reagent (Life Technologies) and were stored at −80° C. until total RNA extraction.
The analysis was carried out with total RNA from oligodendrocyte cultures. Each sample corresponded to the mixture of total RNAs from two cultures and were called the following: control: untreated cultured oligodendrocytes ampa 2: oligodendrocytes treated for 2 minutes with 10 μM AMPA and collected after treatment ampa 10: oligodendrocytes treated for 10 minutes with 10 μM AMPA collected after treatment ampa 15: oligodendrocytes treated for 15 minutes with 10 μM AMPA and collected 60 minutes later Kainate 2: oligodendrocytes treated for 2 minutes with 3 μM kainate and collected after treatment Kainate 10: oligodendrocytes treated for 10 minutes with 3 μM kainate and collected after treatment Kainate 15: oligodendrocytes treated for 15 minutes with 3 μM kainate and collected 60 minutes later The total RNA of each one of the cultures was obtained by homogenizing the cells in TRIzol® Reagent (Life Technologies) following the supplier's recommendations. The resulting total RNA was cleaned with the RNeasy Mini kit (QIAGEN) (Chomczynski P. et al., Anal. Biochem., 1987, 162: 156; Chomczynski P., Biotechniques, 1993, 15: 532). 2 μg from each total RNA preparation were used as starting material for the synthesis of biotinylated cRNA with the MessageAmp™ aRNA kit (Ambion).
15 μg of each biotinylated cRNA were fragmented at 94° C. for 35 minutes in a buffer solution containing 40 mM Tris-Acetate (pH 8.1), 100 mM KOAc and 30 mM MgOAc. The fragmented cRNA was mixed with hybridization buffer (10 mM MES, 1M NaCl, 20 mM EDTA, 0.01% Tween 20) and was heated at 99° C. for 5 minutes and subsequently at 45° C. for 5 minutes, to then be loaded into the Affymetrix array. The first array in which hybridization was carried out was Affymetrix Test 3. This array allows testing the quality of the RNA prior to expression analysis in the Affymetrix® GeneChip® Rat Genome U34 set (RG-U34).
For hybridization, the arrays were incubated in a rotary oven at 45° C. for 16 hours and with a constant rotation of 60 rpm.
Washing and staining of each array was carried out in the Affymetrix® Fluidics Station. A washing and staining program was used which included:
The arrays were scanned at 560 nm using a confocal microscope using laser emission (Agilent GeneArray Scanner). Analysis of the intensity readings was carried out with Microarray Suite 5.0 software. To compare the arrays, the latter were scaled to a total intensity of 100.
Differential analysis of the dusp6 gene expression in the oligodendrocytes stimulated with regard to the control was carried out from the array comparison data obtained using the Affymetrix software. […]

oligodendrocytes = conditions: UO126 10 μM
Procedure: DUSP6 is a negative regulator of the MAPK/ERK signaling pathway which promotes cell survival, as documented above in the Background of the Invention section. Because of that, we tested if the pharmacological inhibition of this pathway potentiates oligodendrocyte death triggered by activation of AMPA receptors.
To block the MAPK/ERK pathway, oligodendrocytes were incubated with UO126, a dual MEK1 & 2 inhibitor, for 15 min prior to the excitotoxic stimulus. Subsequently, cells were exposed to AMPA 10 μM+CTZ 100 μM during 15 minutes in the presence or absence of UO126, and cell viability was assessed 24 h later by the MTT method.

[1] = tested on: oligodendrocytes treated with AMPA; test: Cell death inhibition in oligodendrocytes treated with AMPA after incubation with antisense oligonucleotides; assay type: cell-based, rat; conditions: ODN transfected with Lipofectin, stimulus 15 minutes, protecting effect assessed after 6 hours
Procedure: To evaluate if dusp6 expression blocking inhibits cell death of oligodendrocytes treated with AMPA, antisense oligonucleotides (ODNs) capable of blocking said gene expression were used. The working model used in this assay is a model based on the cell death of oligodendrocytes, a typical model for study the neurodegenerative phase of said demyelinating diseases.
Oligonucleotide design was carried out based on the secondary structure of the RNA, trying to prevent sequences presenting a high internal hybridization percentage, and with the aid of AO predict (http://www.cgb.ki.se/AOpredict/) computer software. To improve efficacy and capability to degrade RNA and to reduce side effects, last-generation oligonucleotides were designed, presenting two types of modifications; 2′-O-Methyl groups in the 6 first and last bases, and phosphorothiodated groups in the 8 intermediate bases. Furthermore, the oligonucleotides were labeled with Texas Red to be able to identify the cells transfected with said oligonucleotides.
Three antisense ODNs, for the purpose of identifying active sequences, plus a sense ODN, used as a negative control, were designed. To improve penetration thereof, the ODNs were transfected using the Lipofectin kit (Invitrogen).
24 hours after seeding, the oligodendrocytes were treated with a mixture of ODs at different concentrations coupled to the transfection kit liposomes.
After 24 hours, the cells were rinsed and were left another 24 hours before the experiment to ensure total blocking of the protein under study. Subsequently, the excitotoxic stimulus, AMPA 10 μM+CTZ 100 μM, was added during 15 minutes, and the protecting effect of the different ODNs after 6 hours was assessed.

[2] = treated 2 minutes (10 μM AMPA or 3 μM kainate), collected after treatment
[3] = treated 10 minutes (10 μM AMPA or 3 μM kainate), collected after treatment
[4] = treated 15 minutes (10 μM AMPA or 3 μM kainate), collected 60 minutes later
[5] = treatments with kainate (3 μM; 2, 10 and 15 minutes) taken together

C=C(C)[C@H]1CN[C@H](C(=O)O)[C@H]1CC(=O)O [Kainate, kainate]
SLR (vs control) (dusp6 gene expression; Signal Log Ratio (log2), treated 2 minutes (10 μM AMPA or 3 μM kainate), collected after treatment): 0.6 | SLR (vs control) (dusp6 gene expression; Signal Log Ratio (log2), treated 10 minutes (10 μM AMPA or 3 μM kainate), collected after treatment): 0.6 | SLR (vs control) (dusp6 gene expression; Signal Log Ratio (log2), treated 15 minutes (10 μM AMPA or 3 μM kainate), collected 60 minutes later): 0.9 | Ratio (=2^SLR) (dusp6 gene expression; [2]): 1.5 fold | Ratio (=2^SLR) (dusp6 gene expression; [3]): 1.5 fold | Ratio (=2^SLR) (dusp6 gene expression; [4]): 1.9 fold | Detection (dusp6 gene expression; [2]): P | Signal (dusp6, probe set U42627_at) (dusp6 gene expression; [2]): 48.4 | Detection (dusp6 gene expression; [3]): P | Signal (dusp6, probe set U42627_at) (dusp6 gene expression; [3]): 43.5 | Detection (dusp6 gene expression; [4]): P | Signal (dusp6, probe set U42627_at) (dusp6 gene expression; [4]): 63.7 | SLR (vs control) (dusp6 gene expression; [5]): < 1 | dusp6 expression increase with regard to the control (dusp6 gene expression; [5]): less than two fold | Change (dusp6 gene expression; [2]): I | Change (dusp6 gene expression; [3]): I | Change (dusp6 gene expression; [4]): I

N#CC(=C(/N)Sc1ccccc1N)/C(C#N)=C(/N)Sc1ccccc1N [UO126]
oligodendroglial cell death induced by AMPA 10 μM+CTZ 100 μM in the presence of UO126 (oligodendrocytes; 15 min prior to and during 15 minutes stimulus, MTT 24 h later, p<0.05, n=3 in triplicate): increased three-fold | oligodendroglial viability under control conditions (oligodendrocytes; MTT, 24 h later): did not affect oligodendroglial viability

ODN2: antisense ODN against dusp6; 2′-O-Methyl groups in 6 first and last bases, phosphorothiodated 8 intermediate bases, Texas Red labeled (antisense TCAACGTGGCCATCCCGGGC; sugars from the 5' end m6 d8 m6, backbone, methylation of C and T or U not given here; Texas Red label, phosphorothioates in eight intermediate bases)
oligodendroglial death after stimulation with AMPA 10 μM+CTZ 100 μM [1]: significantly inhibited | oligodendroglial death after stimulation with AMPA 10 μM+CTZ 100 μM ([1]; listed as SEQ ID NO:3): inhibit cell death of oligodendrocytes treated with AMPA

ODN3: antisense ODN against dusp6; 2′-O-Methyl groups in 6 first and last bases, phosphorothiodated 8 intermediate bases, Texas Red labeled (antisense CCAAGTGGACTCCCTGCAATC; sugars from the 5' end m6 d9 m6, backbone, methylation of C and T or U not given here; Texas Red label, phosphorothioates in eight intermediate bases)
oligodendroglial death after stimulation with AMPA 10 μM+CTZ 100 μM [1]: significantly inhibited | oligodendroglial death after stimulation with AMPA 10 μM+CTZ 100 μM ([1]; listed as SEQ ID NO:4): inhibit cell death of oligodendrocytes treated with AMPA
